# Reference: US9512140B2, “(Thieno[2,3-b][1,5]benzoxazepin-4-yl)piperazin-1-yl compounds as dual activity H1 inverse agonists/5-HT2A antagonists” (priority 2011, dated 2016)
# Counter-ions that a name gives are not always drawn.
# Key:
# 5-HT2A receptor = target: T1, 5-HT2A receptor (Mus musculus, UniProt P35363); assay: Inhibition of DOI induced headshake activity; type: in vivo; conditions: 10 mg/kg PO, mice, DOI 3 mg/kg, read-out: inhibition of DOI induced headshake response
# T1 construct: from tissue; host or cells: living C57BL/6J mice
# Description: (see for example Bartoszyk G D, van Amsterdam C, Böttcher H, Seyfried C A. EMD 281014, a new selective serotonin 5-HT2A receptor antagonist. Eur J Pharmacol. 2003 473: 229-230.) Briefly, male C57BL/6J mice (20-25 g, Charles River) are housed in standard housing conditions (32 mice in a large IVC cage, 07.00 to 19.00 light phase, constant temperature (19-23° C.) and humidity (50%+/−10), ad lib food and water). Mice received either vehicle (0.25% Methyl cellulose), DOI (3 mg/kg in saline) or test compound at 10 mg/kg PO plus DOI (3 mg/kg in saline). Test compounds are individually evaluated in groups of four per experiment with n=4 for each compound, together with vehicle and DOI+vehicle (n=8). After a test compound pre-treatment time of 60 min. the mice receive either vehicle (saline) or 3 mg/kg DOI dosed subcutaneously, and are then placed into clear perspex observation chambers. […] The data is analyzed using an ANOVA and post-hoc Dunnet's Test. The compound of example 2 is tested essentially as described and is found to inhibit the DOI induced headshake response at 100% at 10 mg/kg.
# Dopamine D2 = Dopamine D2 (Homo sapiens, UniProt P14416); assay: Dopamine D2 binding
# Text: (§1) Further, the compounds of the invention may be tested in binding assays and functional activity assays by well known methods for other physiologically important receptors such as, but not limited to, the hERO channel, other serotonin receptors (specifically 5-HT1B, 5-HT1D, receptors, lack of agonist activity at 5-HT2B receptors, 5-HT2C, 5-HT5, 5-HT6, and 5-HT7 receptors), dopaminergic receptors (specifically D1, D2, and D3), GABAA receptors, adrenergic receptors and monoamine transporters.
# 5-HT2B [1] = target: T2, 5-HT2B (Homo sapiens, UniProt P41595); assay: 5-HT2B binding
# Text: as §1
# 5-HT7 = 5-HT7 (Homo sapiens, UniProt P34969); assay: 5-HT7 binding
# Text: as §1
# Norepinephrine Transport = Norepinephrine Transport (Homo sapiens, UniProt P23975); assay: Norepinephrine transporter binding
# Text: as §1
# hERG Channel = hERG Channel (Homo sapiens, UniProt Q12809); assay: hERG channel
# Text: as §1
# Adrenergic alpha2A = Adrenergic alpha2A (Homo sapiens, UniProt P08913); assay: Adrenergic alpha2A binding
# Text: as §1
# 5-HT1D = 5-HT1D (Homo sapiens, UniProt P28221); assay: 5-HT1D binding
# Text: as §1
# 5-HT2B [2] = target: T2, 5-HT2B; assay: 5-HT2B agonist functional activity; type: biochemical
# Text: as §1
# Dopamine D1 = Dopamine D1 (Homo sapiens, UniProt P21728); assay: Dopamine D1 binding
# Text: as §1
# T2 sequence (P41595 whole entry, species assumed): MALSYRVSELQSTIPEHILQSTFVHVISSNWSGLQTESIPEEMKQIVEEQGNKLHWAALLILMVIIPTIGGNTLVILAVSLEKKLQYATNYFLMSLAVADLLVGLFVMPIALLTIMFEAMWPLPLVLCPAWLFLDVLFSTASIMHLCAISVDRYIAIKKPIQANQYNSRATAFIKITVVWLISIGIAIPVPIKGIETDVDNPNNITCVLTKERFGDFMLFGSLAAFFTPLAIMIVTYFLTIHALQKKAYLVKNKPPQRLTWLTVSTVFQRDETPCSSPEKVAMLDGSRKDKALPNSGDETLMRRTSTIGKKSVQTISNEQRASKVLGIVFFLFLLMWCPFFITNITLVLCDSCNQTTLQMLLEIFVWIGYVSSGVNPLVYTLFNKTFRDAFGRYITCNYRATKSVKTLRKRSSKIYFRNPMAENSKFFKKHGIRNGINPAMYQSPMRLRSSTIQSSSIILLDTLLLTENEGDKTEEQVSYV
# Sequence of 5-HT7 (P34969 whole entry, species assumed): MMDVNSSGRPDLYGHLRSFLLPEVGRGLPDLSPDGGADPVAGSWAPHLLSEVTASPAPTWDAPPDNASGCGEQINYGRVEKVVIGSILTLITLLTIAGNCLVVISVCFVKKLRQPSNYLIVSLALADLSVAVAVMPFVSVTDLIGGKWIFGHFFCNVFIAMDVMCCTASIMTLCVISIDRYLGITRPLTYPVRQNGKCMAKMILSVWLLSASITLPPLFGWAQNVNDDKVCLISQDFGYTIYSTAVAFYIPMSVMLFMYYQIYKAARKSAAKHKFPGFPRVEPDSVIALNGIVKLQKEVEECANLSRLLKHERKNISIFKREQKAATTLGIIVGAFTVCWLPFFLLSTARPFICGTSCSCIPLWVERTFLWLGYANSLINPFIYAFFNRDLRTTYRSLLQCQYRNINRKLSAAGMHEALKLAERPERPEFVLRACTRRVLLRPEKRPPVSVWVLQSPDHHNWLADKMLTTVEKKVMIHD
# Sequence of 5-HT1D (P28221 whole entry, species assumed): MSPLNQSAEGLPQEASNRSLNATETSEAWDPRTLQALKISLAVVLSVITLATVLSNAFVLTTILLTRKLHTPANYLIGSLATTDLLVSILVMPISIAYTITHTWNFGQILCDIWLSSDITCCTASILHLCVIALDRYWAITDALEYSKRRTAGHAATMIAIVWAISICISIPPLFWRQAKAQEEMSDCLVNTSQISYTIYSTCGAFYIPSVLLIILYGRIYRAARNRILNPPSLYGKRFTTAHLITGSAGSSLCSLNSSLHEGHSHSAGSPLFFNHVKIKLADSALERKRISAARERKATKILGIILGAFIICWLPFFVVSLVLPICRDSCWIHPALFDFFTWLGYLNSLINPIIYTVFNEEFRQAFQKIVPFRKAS
# T1 sequence (P35363 whole entry): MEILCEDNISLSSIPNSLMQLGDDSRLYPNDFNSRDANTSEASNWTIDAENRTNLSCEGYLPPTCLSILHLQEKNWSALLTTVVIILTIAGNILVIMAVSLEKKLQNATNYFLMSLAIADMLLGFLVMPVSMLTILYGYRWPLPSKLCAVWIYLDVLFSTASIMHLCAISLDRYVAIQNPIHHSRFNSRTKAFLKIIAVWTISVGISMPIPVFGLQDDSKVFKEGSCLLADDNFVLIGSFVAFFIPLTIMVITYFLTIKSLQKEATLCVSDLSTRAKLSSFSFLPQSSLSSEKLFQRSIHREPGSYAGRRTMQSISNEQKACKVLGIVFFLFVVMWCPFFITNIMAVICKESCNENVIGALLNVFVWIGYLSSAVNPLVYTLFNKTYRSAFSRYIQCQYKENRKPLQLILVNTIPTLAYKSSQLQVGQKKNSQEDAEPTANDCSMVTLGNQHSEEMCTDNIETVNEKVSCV
# Sequence of Adrenergic alpha2A (P08913 whole entry): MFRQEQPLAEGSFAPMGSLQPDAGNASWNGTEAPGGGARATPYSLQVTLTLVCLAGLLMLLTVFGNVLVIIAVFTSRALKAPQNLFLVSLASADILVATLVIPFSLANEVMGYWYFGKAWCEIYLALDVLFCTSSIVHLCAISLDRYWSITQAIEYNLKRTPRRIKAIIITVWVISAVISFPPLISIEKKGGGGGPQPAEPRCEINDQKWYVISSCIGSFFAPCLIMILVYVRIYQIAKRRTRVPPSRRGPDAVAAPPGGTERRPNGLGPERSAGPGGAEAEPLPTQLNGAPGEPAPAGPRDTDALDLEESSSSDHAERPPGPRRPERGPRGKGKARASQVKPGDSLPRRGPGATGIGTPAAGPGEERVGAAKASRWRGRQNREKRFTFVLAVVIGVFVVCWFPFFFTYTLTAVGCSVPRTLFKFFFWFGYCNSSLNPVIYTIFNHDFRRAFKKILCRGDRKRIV
# Sequence of Norepinephrine Transport (P23975 whole entry): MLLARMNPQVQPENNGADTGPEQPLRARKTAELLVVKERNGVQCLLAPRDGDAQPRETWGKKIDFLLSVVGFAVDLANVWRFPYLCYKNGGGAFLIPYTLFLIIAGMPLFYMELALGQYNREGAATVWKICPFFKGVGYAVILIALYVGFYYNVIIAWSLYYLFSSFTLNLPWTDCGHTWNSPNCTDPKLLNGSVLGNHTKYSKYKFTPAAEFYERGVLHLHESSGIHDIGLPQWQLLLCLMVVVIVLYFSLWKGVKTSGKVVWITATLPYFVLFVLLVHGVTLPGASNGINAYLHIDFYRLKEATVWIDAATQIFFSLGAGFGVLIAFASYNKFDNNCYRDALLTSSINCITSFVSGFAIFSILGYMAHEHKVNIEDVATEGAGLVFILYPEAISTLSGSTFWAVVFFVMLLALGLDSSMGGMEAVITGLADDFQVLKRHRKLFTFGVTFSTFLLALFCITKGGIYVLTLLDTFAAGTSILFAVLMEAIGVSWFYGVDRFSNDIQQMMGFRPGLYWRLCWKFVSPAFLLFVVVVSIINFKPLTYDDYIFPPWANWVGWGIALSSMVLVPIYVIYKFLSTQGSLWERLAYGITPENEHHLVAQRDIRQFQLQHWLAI
# Sequence of hERG Channel (Q12809 whole entry): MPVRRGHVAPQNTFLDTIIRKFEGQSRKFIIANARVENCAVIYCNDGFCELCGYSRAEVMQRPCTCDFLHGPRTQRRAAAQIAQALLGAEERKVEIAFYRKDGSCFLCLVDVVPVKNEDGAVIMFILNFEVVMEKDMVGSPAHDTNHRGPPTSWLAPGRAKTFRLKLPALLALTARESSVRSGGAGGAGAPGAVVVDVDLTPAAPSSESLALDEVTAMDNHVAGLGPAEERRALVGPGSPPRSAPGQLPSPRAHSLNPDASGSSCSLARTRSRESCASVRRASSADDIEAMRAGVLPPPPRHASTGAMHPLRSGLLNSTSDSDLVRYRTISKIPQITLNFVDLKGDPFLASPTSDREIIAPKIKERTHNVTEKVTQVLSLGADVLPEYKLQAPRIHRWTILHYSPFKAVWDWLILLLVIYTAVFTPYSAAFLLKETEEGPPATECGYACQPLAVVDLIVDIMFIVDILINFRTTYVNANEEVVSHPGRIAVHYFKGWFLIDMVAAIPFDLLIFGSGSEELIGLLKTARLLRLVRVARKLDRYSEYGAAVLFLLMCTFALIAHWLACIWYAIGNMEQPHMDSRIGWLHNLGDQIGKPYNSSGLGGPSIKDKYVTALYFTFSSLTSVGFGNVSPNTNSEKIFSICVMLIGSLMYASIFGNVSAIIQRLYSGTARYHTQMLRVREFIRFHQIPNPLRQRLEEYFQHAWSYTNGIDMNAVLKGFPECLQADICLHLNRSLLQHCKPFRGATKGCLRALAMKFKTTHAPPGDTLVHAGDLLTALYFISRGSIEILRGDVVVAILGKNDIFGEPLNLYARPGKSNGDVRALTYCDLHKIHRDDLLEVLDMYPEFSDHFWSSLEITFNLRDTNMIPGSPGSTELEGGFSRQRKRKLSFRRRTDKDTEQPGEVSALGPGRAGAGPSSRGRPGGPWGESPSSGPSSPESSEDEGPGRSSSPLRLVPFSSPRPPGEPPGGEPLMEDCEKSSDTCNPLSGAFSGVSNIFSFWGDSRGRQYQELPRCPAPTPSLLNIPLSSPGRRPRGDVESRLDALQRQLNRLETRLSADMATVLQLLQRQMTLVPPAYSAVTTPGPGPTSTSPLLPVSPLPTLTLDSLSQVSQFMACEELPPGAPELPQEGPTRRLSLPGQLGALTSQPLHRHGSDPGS
# Sequence of Dopamine D2 (P14416 whole entry): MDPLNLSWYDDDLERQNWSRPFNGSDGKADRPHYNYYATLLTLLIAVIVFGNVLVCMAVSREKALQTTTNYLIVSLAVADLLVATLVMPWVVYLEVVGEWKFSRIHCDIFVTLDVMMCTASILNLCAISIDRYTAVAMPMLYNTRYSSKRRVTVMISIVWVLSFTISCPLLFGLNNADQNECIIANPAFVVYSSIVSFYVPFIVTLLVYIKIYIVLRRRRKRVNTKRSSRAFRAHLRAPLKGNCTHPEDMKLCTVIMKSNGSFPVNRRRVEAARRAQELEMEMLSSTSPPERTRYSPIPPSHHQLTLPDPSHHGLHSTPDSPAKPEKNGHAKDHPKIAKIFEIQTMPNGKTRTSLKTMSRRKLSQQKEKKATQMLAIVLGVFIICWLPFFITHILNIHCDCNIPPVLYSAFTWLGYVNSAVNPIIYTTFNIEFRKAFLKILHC
# Sequence of Dopamine D1 (P21728 whole entry): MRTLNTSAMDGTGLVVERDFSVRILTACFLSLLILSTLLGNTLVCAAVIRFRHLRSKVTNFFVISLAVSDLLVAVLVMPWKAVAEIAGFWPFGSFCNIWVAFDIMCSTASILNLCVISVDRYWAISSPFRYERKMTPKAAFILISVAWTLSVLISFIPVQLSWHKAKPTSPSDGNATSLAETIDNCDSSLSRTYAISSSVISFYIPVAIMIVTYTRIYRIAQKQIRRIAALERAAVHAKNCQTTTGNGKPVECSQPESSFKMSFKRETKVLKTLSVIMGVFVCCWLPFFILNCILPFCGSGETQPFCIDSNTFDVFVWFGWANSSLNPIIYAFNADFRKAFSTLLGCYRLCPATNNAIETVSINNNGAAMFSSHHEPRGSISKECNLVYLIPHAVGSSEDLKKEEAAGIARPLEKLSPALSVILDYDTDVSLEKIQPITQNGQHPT
structure (smiles),measurement,setting,value
"Cc1ccc2c(c1)Oc1sc(C)cc1C(N1CCN(CC(C)(C)C(=O)O)CC1)=N2 [Example 2, 3-[4-(2,8-Dimethylthieno[2,3-b][1,5]benzoxazepin-4-yl)piperazin-1-yl]-2,2-dimethyl-propanoic acid dihydrochloride]",inhibition at 10 mg/kg,5-HT2A receptor,100%
same,Ki,Dopamine D2,2480 nM
same,Ki,5-HT2B [1],95.8 nM
same,Ki,5-HT7,> 2060 nM
same,Ki,Norepinephrine Transport,> 674 nM
same,hERG Channel,hERG Channel,>100 µM
same,Ki,Adrenergic alpha2A,> 9020 nM
same,Ki,5-HT1D,> 3980 nM
same,EC50,5-HT2B [2],> 10000 nM
same,Ki,Dopamine D1,2350 nM
